This note sets out measurements from US7585998B2 (Bayer CropScience AG, priority 2003, dated 2009).

The nature of this data set: log P determination by HPLC on a reverse phase column (C 18), EEC Directive 79/831 Annex V.A8. It counts as physicochemical. The following applies: pH 2.3, 0.1% aqueous phosphoric acid and acetonitrile as eluents, linear gradient 10% to 90% acetonitrile, 43° C. As for the experimental part:
The determination of the log P values reported in the above tables and preparation examples is carried out in compliance with EEC Directive 79/831 Annex V.A8 by HPLC (High Performance Liquid Chromatography) on a reverse phase column (C 18). Temperature: 43° C. The determination is carried out in the acid region at pH 2.3 with 0.1% aqueous phosphoric acid and acetonitrile as eluents; linear gradient of 10% acetonitrile to 90% acetonitrile. Calibration is carried out with unbranched alkan-2-ones (with 3 to 16 carbon atoms) the log P values of which are known (determination of the log P values on the basis of retention times by linear interpolation between two sequential alkanones).

For `CCOC(=O)c1sc(C)nc1C(F)F`, the chromatographic logP (as a rule, lipophilicity estimated from chromatographic retention) was determined as 2.18.
